Test results from US20140323575A1, “TYROSINE ISOMERS AS THERAPEUTIC AGENTS” (CONSEJO NACIONAL DE INVESTIGACIONES CIENTIFICAS Y TECNICAS …, priority 2011, published 2014).

Assays:
[1] = tested on: inhibitory activity present in serum from LB tumor-bearing mice; experiment: Titer of growth-inhibitory activity in serum from drug-treated LB tumor-bearing mice; type: in vivo; conditions: for effect on serum inhibitory activity of LB tumor-bearing mice: treatment of LB tumor-bearing mice
LB tumor cells [2] = experiment: Rescue of in vitro LB tumor inhibition mediated by m- or o-tyrosine by co-culturing with amino acids; type: cell-based, mice; conditions: co-culture with m- or o-tyrosine
Procedure: (§1) Each point (percentage of cpm incorporated by LB cells as compared with the control) represents the mean±SE of 3 experiments. Significance versus control, meta-tyrosine and peak 2: P<0.001 at >2.75 μg/mL; peak 2: P<0.05 at 2.75 μg/mL. ortho-tyrosine P<0.001 at 500 to 125 μg/mL; P<0.002 at 30 μg/mL. Peak 3: P<0.002 and P<0.01, at 31 and 15.5 μg/mL, respectively. Rescue of in vitro LB tumor inhibition mediated by meta-tyrosine (150 μg/mL)(B) or ortho-tyrosine (150 μg/mL) (C) by co-culturing with 150 μg/mL of individual protein amino acids. Each value represents the mean±SE of 8 to 18 determinations for (B) and 4 to 9 determinations for (C). a, P<0.01; c, P<0.001 versus meta- or ortho-tyrosine. Data with saline was similar to data obtained with each amino acid alone.

LB tumor = experiment: In vivo growth of s.c. LB tumor implants (primary, secondary under CR, established, ascitic); parameters: species or system mice
Procedure: Twenty mice received an s.c. implant of 1×10^6 LB cells in the right flank, and, 7 days later, an s.c. secondary implant of 1×10^5 LB tumor cells in the left flank. […] The remaining 10 mice received 0.2 mL of phenylalanine (500 μg/mL) at the site of the secondary implant, daily, for 8 days, starting 1 hour after the secondary inoculum [CR+Phe (-□-)]. Controls were 10 mice receiving 1×10^5 LB tumor cells in the left flank only [control (-Δ-)]. A fourth group received the tumor inoculum in the left flank but also meta-tyrosine at the site of tumor implant (0.2 mL of 500 μg/mL, n=10) or by the intraperitoneal route (0.5 mL of 1,000 μg/mL, n=6), daily, for 8 days, starting 1 hour after tumor inoculum [control+m-Tyr: (-▴-)]. A fifth group received the tumor inoculum in the left flank and also meta-tyrosine (0.2 mL of 500 μg/mL, n=5) at the site of tumor growth, daily for 5 days, starting (see arrow) when LB was an established tumor measuring 60 to 70 mm^3 [est. LB+m-Tyr: (-X-)]. Abscissa, days after tumor implant in the left flank. Ordinate, volume of the tumors implanted in the left flank. CR and control+m-Tyr versus control: P<0.001 at day 9 and P<0.002 at days 5 and 7; CR and control+m-Tyr versus CR+Phe: P<0.001 at days 5, 7 and […]; est. LB+m-Tyr versus control and CR+Phe: P<0.002 at day 9. Control+tyrosine or saline, control; CR+tyrosine or saline, CR. FIG. 6B is a microscopic view showing many tumor cells expressing Ki-67 protein in both CR+phenylalanine (B1) and control (B2) groups and few tumor cells expressing Ki-67 in both CR (B3) and control+meta-tyrosine (B4) groups (H×400). FIG. 6C illustrates a representative experiment showing the frequency distribution histogram of viable LB cells from a control tumor (C1), from a secondary tumor inhibited by CR (C2), and from a tumor inhibited by periodic intraumoral injection of meta-tyrosine (C3). Samples of tumor cells were collected 9 days after the s.c. inoculation of 1×10^5 LB tumor cells.

MC-C tumor = experiment: In vivo growth of s.c. MC-C fibrosarcoma implants; parameters: species or system mice; conditions: secondary MC-C implant in primary tumor-bearing mice, 0.2 ml of 500 μg/ml daily for 19 days at the site
Procedure: Twelve mice received a s.c. implant of 5×10^6 MC-C tumor cells in the right flank and 25 days later they received a secondary implant of 2×10^6 MC-C tumor cells in the left flank. […] The remaining 6 mice received 0.2 ml of phenylalanine (500 μg/ml) at the site of the secondary implant, daily, for 19 days, starting 1 hour later than the secondary implant. These secondary implants grew as in 6 controls only receiving the implant in the left flank (tumor volumes of secondary tumor+phenylalanine and of controls, 20 days after the implant in the left flank were =680±152 mm^3 and 524±88 mm^3, respectively). […] Significance: Secondary tumor vs. control: p<0.01; vs. secondary tumor+phenylalanine: p<0.02. Control+m-tyrosine vs. control and vs. secondary tumor+phenylalanine: p<0.02.

CEI tumor = experiment: In vivo growth of s.c. CEI epidermoid carcinoma implants; parameters: species or system mice; conditions: secondary CEI implant in primary tumor-bearing mice, 0.2 ml of 500 μg/ml daily for 19 days at the site
Procedure: Twelve mice received a s.c. implant of 1×10^6 CEI tumor cells in the right flank and 28 days later they received a secondary implant of 3×10^5 CEI tumor cells in the left flank. […] The remaining 6 mice received 0.2 ml of phenylalanine (500 μg/ml) at the site of the secondary implant, daily, for 19 days, starting 1 hour later than the secondary implant. These secondary implants grew as in 6 controls only receiving the implant in the left flank (tumor volumes of secondary tumor+phenylalanine and of controls, 20 days after the implant in the left flank were 358±38 mm^3 and 373±93 mm^3, respectively). […] Significance: Secondary tumor and control+m-tyrosine vs. control: p<0.01; vs. secondary tumor+phenylalanine: p<0.001.

ERK1 and ERK2 = experiment: Western blot of p-ERK 1/2 in LB tumor cells; type: cell-based, mice; conditions: added together with m-tyrosine, 250 μg/mL each, 3 minutes
Procedure: (§2) FIG. 8 illustrates the effect of meta-tyrosine on the expression of phosphorylated (p)-Erk 1/2 and p-STAT3 in LB tumor cells using Western blot: 3×10^5 LB tumor cells in 0.1 mL of medium were cultured in the presence of 0.1 mL of meta-tyrosine (m-Tyr; 250 μg/mL), phenylalanine (Phe, 250 μg/mL), meta-tyrosine (250 μg/mL)+phenylalanine (250 μg/mL), or saline for 3 minutes (to measure p-ERK 1/2) or for 8 hours (to measure p-STAT3). Positive control was obtained by treating LB cells with pervanadate. Controls with acting, total ERK 1/2, and total STAT3 were also added. FIG. 8A illustrates a representative experiment showing p-ERK 1/2 expression. FIG. 8B is a histogram showing the mean of 5 experiments; a, P<0.01 versus saline and versus meta-tyrosine+phenylalanine; P<0.02 versus phenylalanine. FIG. 8C illustrates a representative experiment showing p-STAT3 expression. […]
(§3) On this basis, we analyzed, first, the effect of m-tyrosine on ERK1 and ERK2 as 2 examples of protein kinases that are activated by the mitogen activated protein/extracellular signal-regulated kinase (MAP/ERK) signal transduction pathway that normally couples intracellular responses associated with cell proliferation, to the binding of growth factors to cell surface receptors (Kohno M, and Pouyssegur J. 2006. Targeting the ERK signaling pathway in cancer therapy. Ann Med; 38:200-211). […]

STAT3 = experiment: Western blot of p-STAT3 in LB tumor cells; type: cell-based, mice; conditions: added together with m-tyrosine, 250 μg/mL each, 8 hours
Procedure: as §2, §3

LB tumor cells [3] = experiment: In vitro LB tumor cell proliferation ([3H]-thymidine uptake); type: cell-based, mice; conditions: even with high concentrations
Procedure: as §1
Fractionation of serum from mice bearing a subcutaneous LB tumor (size≧2,000 mm^3) was carried out through several steps of purification (FIG. 1). Serum from normal mice was similarly fractioned as control. At all stages of the purification, the presence of the inhibitory factor was monitored by the [^3H]-thymidine uptake assay as a measure of LB tumor cell proliferation. First, serum was decomplemented and subjected to dialysis. The inhibitory factor was recovered only in the dialyzable fraction (MW<12,500 Da) and was then concentrated by lyophilization and applied successively to Sephadex G-25 and G-15 chromatographic columns, where activity was recovered at fractions corresponding to a molecular weight below 1,000 Da. These fractions were lyophilized and further purified with an HPLC column C18 in a gradient of acetonitrile in TFA (first HPLC). In 12 similar and independent experiments, growth inhibitory activity was systematically recovered in only 1 fraction eluted at near 20% acetonitrile (FIG. 2).
To test directly whether a “cocktail” of amino acids similar to that detected close to the “primary site” was more counteracting of the antitumor effects produced by m- and o-tyrosine than a “secondary site cocktail,” different concentrations of a mixture of m-tyrosine and o-tyrosine (ratio 1:1) were assayed on LB tumor cell proliferation, alone or together with a primary or a secondary site cocktail of amino acids.

[4] = serum of mice bearing s.c. LB tumor >2,000 mm^3, agent i.p. 48 and 24 hours before testing, titer = reciprocal of serum dilution producing 50% inhibition of [3H]thymidine uptake by LB cells

Molecule	effect on serum inhibitory activity of LB tumor-bearing mice [1]	GIU50/mL (X ± SE) [1, 4] [GIU50/mL]	counteracting of the inhibitory effect produced by m- and o-tyrosine (LB tumor cells [2])	further results
CN(C)CCCN1c2ccccc2Sc2ccc(Cl)cc21 [Chlorpromazine, chlorpromazine]	significant reduction			GIU50/mL (X ± SE) ([1]; ip): 84 ± 19 GIU50/mL
C[C@@H]1C[C@H]2[C@@H]3CCC4=CC(=O)C=C[C@]4(C)[C@@]3(F)[C@@H](O)C[C@]2(C)[C@@]1(O)C(=O)CO [Dexamethasone, dexamethasone]				GIU50/mL (X ± SE) ([1]; ip): 70 ± 18 GIU50/mL
Nc1ccn([C@@H]2O[C@H](CO)[C@@H](O)C2(F)F)c(=O)n1 [Gemcitabine, gemcitabine]	significant reduction	40 ± 6		
COc1ccc2c(c1)c(CC(=O)O)c(C)n2C(=O)c1ccc(Cl)cc1 [INDO, indomethacin]	significant reduction			GIU50/mL (X ± SE) ([1]; ip): 142 ± 16 GIU50/mL
COC(=O)[C@@H](N)CCCNC(=N)N[N+](=O)[O-] [L-NAME]	did not reduce	266 ± 34		
CCCCc1nc(Cl)c(CO)n1Cc1ccc(-c2ccccc2-c2nn[nH]n2)cc1 [Losartant, losartan]	did not reduce			GIU50/mL (X ± SE) ([1]; ip): 300 ± 30 GIU50/mL
CC(Cc1ccc(O)c(O)c1)C(C)Cc1ccc(O)c(O)c1 (centres unmarked) [NDGA, nordihydroguaiaretic acid]	significant reduction	116 ± 14		
O=C1CCN(c2ccccc2)N1 [Phenidone, phenidone]	significant reduction	103 ± 19		
CC(CN1c2ccccc2Sc2ccccc21)N(C)C (centres unmarked) [Promethazine, promethazine]	significant reduction	80 ± 9		
N[C@@H](CC(=O)O)C(=O)O [aspartic acid]			counteracted	
N[C@@H](CCC(=O)O)C(=O)O [glutamic acid]			counteracted	
NC(=O)CC[C@H](N)C(=O)O [glutamine]			counteracted	
N[C@@H](Cc1c[nH]cn1)C(=O)O [histidine]			only counteracted the inhibitory effect produced by m-tyrosine	
N[C@@H](Cc1ccccc1)C(=O)O [phenylalanine, reference compound]			counteracted	expression of Ki-67 protein in tumor cells (LB tumor; control+m-tyrosine tumors or secondary implants treated with phenylalanine (FIG. 6B)): high expression; growth of secondary LB tumor implant otherwise inhibited by CR (LB tumor; periodically inoculated at the site of the secondary implant): grew similarly to controls; tumor volume of secondary tumor 20 days after the implant in the left flank (MC-C tumor): 680±152 mm^3; tumor volume of secondary tumor 20 days after the implant in the left flank (CEI tumor): 358±38 mm^3; effect on the m-tyrosine-induced reduction of ERK1/ERK2 activation (ERK1 and ERK2): reversed that effect; effect on the m-tyrosine-induced reduction of STAT3 activation (STAT3): reversed that effect
N[C@@H](Cc1ccc(O)cc1)C(=O)O [tyrosine, 4-hydroxyphenylalanine]			did not reduce	effect on LB cells in vitro (LB tumor cells [3]): innocuous
Catalase	significant reduction	49 ± 5		
